Test results: PMC3720812, “YjcC, a c-di-GMP Phosphodiesterase Protein, Regulates the Oxidative Stress Response and Virulence of Klebsiella pneumoniae CG43” (PLoS ONE, 2013)

How the values were obtained:
MrkJ = molecular target: T1, MrkJ (Klebsiella pneumoniae, UniProt G3FT02); assay: release of p-nitrophenol at […] nm; assay type: biochemical; details: positive control enzyme; activity only in figure
T1 construct: recombinant from pET30b-mrkJ, E. coli BL21(DE3), purified

YjcC-EAL domain = molecular target: T2, YjcC-EAL domain (Klebsiella pneumoniae, UniProt A6TGY2); assay: release of p-nitrophenol at […] nm; assay type: biochemical; details: chromogenic model substrate; activity only in figure
T2 construct: EAL domain only (C-terminal)
T2 sequence (A6TGY2 entry or part of it): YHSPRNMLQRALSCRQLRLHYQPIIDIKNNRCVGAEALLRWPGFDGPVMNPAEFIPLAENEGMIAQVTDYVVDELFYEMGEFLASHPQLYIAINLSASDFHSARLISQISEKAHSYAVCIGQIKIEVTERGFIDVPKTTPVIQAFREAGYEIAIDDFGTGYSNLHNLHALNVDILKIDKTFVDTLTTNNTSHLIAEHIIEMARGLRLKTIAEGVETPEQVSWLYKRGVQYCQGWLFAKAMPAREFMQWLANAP

T1 sequence (G3FT02 entry or part of it): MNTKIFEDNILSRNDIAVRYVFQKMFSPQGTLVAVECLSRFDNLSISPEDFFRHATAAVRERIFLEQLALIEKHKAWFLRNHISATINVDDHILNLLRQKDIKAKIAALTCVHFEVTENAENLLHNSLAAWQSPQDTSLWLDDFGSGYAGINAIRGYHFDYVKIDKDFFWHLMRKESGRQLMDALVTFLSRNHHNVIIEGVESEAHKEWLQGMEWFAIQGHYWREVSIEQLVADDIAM

O=[N+]([O-])c1ccc(OP(=O)(O)Oc2ccc([N+](=O)[O-])cc2)cc1 [bis(p-nitrophenyl) phosphate]
specific PDE activity (MrkJ): This activity is lower than the level of the recombinant MrkJ
specific PDE activity (YjcC-EAL domain): the purified EAL domain protein exhibits PDE activity towards pNpp
